Assay results published in patent US11045509B2, “Tributyrin compositions and methods therefor” (Compound Solutions, Inc., priority 2019, dated 2021).

How the values were obtained:
Type in all cases: in vivo, human
Lachnospira = experiment: relative abundance of Lachnospira in stool before and after 3-week tributyrin study (16S rRNA); details: three volunteers, 300 mg tributyrin per day for 3 weeks, stool sample POST vs PRE, FIG. 3
Source text: (§1) The inventors recruited three volunteers who were asked to provide some basic anthropometric characteristics and lifestyle habits. All volunteer subjects (2 female and 1 male) were free of chronic disease and reported not having taken an antibiotic within the past six months. Body mass index (kg/m^2) analysis classified two of the subjects as “overweight” (BMI>25<30), and one as obese (BMI>30). Although activity habits varied, all of the subjects reported weekly participation in light-to-moderate physical activity, and relatively low caffeine intake (<200 mg/day) and alcohol intake (<3 drinks a week). Before the start of the 3-week study, stool samples were collected from each of the 3 volunteers using the commercially available UBiome Explorer kit. The collected stool samples were sent to Ubiome labs (San Francisco, Calif.) where DNA was extracted followed by 16S rRNA gene amplification for bacterial classification. The 3-week study involved each of the volunteers taking 300 milligrams (mg) of tributyrin per day for 3 weeks. Subjects were verbally instructed to maintain usual dietary and physical activity habits throughout the course of the study. At the end of the 3-week period, stool samples were collected following the same protocol, and sent for analysis. […]

Faecalibacterium = experiment: relative abundance of Faecalibacterium in stool before and after 3-week tributyrin study (16S rRNA); details: three volunteers, 300 mg tributyrin per day for 3 weeks, stool sample POST vs PRE, FIG. 2
Source text: as §1

Bifidobacterium = experiment: relative abundance of Bifidobacterium in stool before and after 3-week tributyrin study (16S rRNA); details: three volunteers, 300 mg tributyrin per day for 3 weeks, stool sample POST vs PRE, FIG. 1
Source text: as §1

[1] = system: Firmicutes to Bacteroidetes (F/B) ratio; experiment: collective Firmicutes to Bacteroidetes (F/B) ratio in stool before and after 3-week tributyrin study; details: three volunteers, 300 mg tributyrin per day for 3 weeks, stool samples POST vs PRE, FIG. 4
Protocol: With reference to FIG. 4, the collective ratio of firmicutes to bacteroidetes (F/B ratio) was measured in the stool samples of the three volunteer subjects before and after taking tributyrin daily for three weeks as described in the Examples. The firmicutes and bacteroidetes are each a phylum of bacteria making up the largest portion of the human gut microbiome. In particular the F/B ratio has been reported to be associated with metabolic factors and cardiorespiratory fitness. Durk et al., 2018, Int J Sport Nutr Exerc Metab, 29, 249-253. Accordingly, the inventors contemplate a method of increasing the F/B ratio in the gut of a mammal with the administration of a tributyrin-containing composition to the mammal at a dosage that effectively increases the F/B ratio in the gut of the mammal. […] As such, contemplated compositions are thought to not only selectively improve gut microflora, but also to enhance nutrient uptake. The inventors recruited three volunteers who were asked to provide some basic anthropometric characteristics and lifestyle habits. All volunteer subjects (2 female and 1 male) were free of chronic disease and reported not having taken an antibiotic within the past six months. Body mass index (kg/m^2) analysis classified two of the subjects as “overweight” (BMI>25<30), and one as obese (BMI>30). […]

CCCC(=O)OCC(COC(=O)CCC)OC(=O)CCC [tributyrin]
increase in relative abundance of Lachnospira (Lachnospira): 114%
increase in relative abundance of Faecalibacterium (Faecalibacterium): 29%
increase in relative abundance of Bifidobacterium (Bifidobacterium): 8,841%
increase of collective F/B ratio [1]: approximately 50%
